{"source": "patent US20050008653A1", "about": "“Stabilizing molecule” (Medical Research Council, priority 2001, published 2005)", "key": {"[1]": {"molecular_target": "T1, p53 core domain (Homo sapiens, UniProt P04637)", "assay": "Anisotropy competition with fluorescein-labeled CDB3", "conditions": "solution measurements"}, "[2]": {"molecular_target": "T1, p53 core domain", "assay": "BIAcore binding of p53 core domain to immobilised biotinylated CDB3 (half saturation concentration)", "parameters": "human p53 core domain wild-type and mutants (residues 94-312); made in house", "from_the_text": "Surface plasmon resonance measurements may be performed using a BIAcore 2000 using methods familiar to those skilled in the art. For example, it may be equipped with a sensor chip SA (BIAcore AB, Uppsala, Sweden) both to screen the polypeptide for binding of stabilising molecule and to quantify the binding of the stabilising molecule to the polypeptide. […] Biotinylated stabilising molecules such as CDB peptides may be immobilised and the binding of the polypeptide (in this case p53) can therefore be studied.\nAll immobilisation as well as binding measurements may be performed at 10° C. with 50 mM HEPES, pH 7.2, 5 mM DTT, as running buffer, using a sample frequency of 1 Hz. The streptavidin surface of the chip can be activated with […] NaOH, 1 M NaCl, in three cycles of 1 min, 20 μL/min, before the immobilization of peptides. The biotinylated peptides may be dissolved to a final concentration of 1.5-4.0 mM (in buffer as above with addition of 0.13 M NaCl) and can be immobilised at a flow rate of 5 μL/min until the level of saturation is reached. In the above Example Flow cell 1 can be used as a background for the change in bulk refractive index.\nThe binding association is measured for 5 min at 30 μL/min, […], in the buffer described above (no salt added). […]\nSurface plasmon resonance can be used to measure the CDB3-p53 core domain binding constant quantitatively. […]"}, "[3]": {"molecular_target": "T2, p53 core domain mutant I195T (Homo sapiens, UniProt P04637, I195T)", "T2 construct": "human p53 core domain wild-type and mutants (residues 94-312); made in house", "assay": "Restoration of sequence-specific DNA binding (fluorescein-labelled Gadd45 DNA, anisotropy)", "type": "biochemical", "conditions": "CDB3 100 μM"}, "[4]": {"molecular_target": "T3, wild-type p53 core domain (Homo sapiens, UniProt P04637)", "T3 construct": "human p53 core domain wild-type and mutants (residues 94-312); made in house", "assay": "DNA binding in presence of peptide (Gadd45 DNA)", "type": "biochemical"}, "[5]": {"molecular_target": "T2, p53 core domain mutant I195T", "assay": "Binding to random double stranded DNA sequence in presence of peptide", "type": "biochemical", "from_the_text": "To confirm that the restoration of DNA binding is sequence-specific, we repeated the experiments with the random double stranded DNA sequence fluorescein-[…] […]."}, "[6]": {"tested_on": "tumour cells", "assay": "FACS analysis of cell cycle distribution and cell death (subG1)", "type": "cell-based", "conditions": "10 μg/mL, 24 h"}, "[7]": {"tested_on": "H1299 cells containing p53 R175H", "assay": "Distribution of FL-CDB3 in cells (fluorescence microscopy)", "type": "cell-based", "conditions": "without Lipofectamine", "description": "The results can be seen in FIG. 8.\nTop left: H1299 cells containing p53 R 175H. […] The peptide remained visible for at least 48 h."}, "[8]": {"molecular_target": "T1, p53 core domain", "assay": "Refolding of urea-denatured p53 core domain by fluorescence anisotropy", "type": "biochemical", "parameters": "human p53 core domain wild-type and mutants (residues 94-312); made in house", "conditions": "3 M urea, 10° C.", "from_the_text": "Upon mixing the peptide with p53 core domain a rapid binding event takes place, leading to the formation of a FL-CDB3-p53 core domain complex. […] There is an increase in the anisotropy over time, as the peptide induced protein refolding by mass action (FIG. 6d). […] Urea weakened the binding to the native structure so that the stabilising effects in 3 M urea are not as pronounced as they would be in water alone."}, "[9]": {"molecular_target": "T3, wild-type p53 core domain", "assay": "Differential scanning calorimetry (apparent Tm)", "type": "binding", "conditions": "HEPES buffer pH 7.2, 1 mM DTT; 40.1° C. without peptide", "description": "Differential Scanning Calorimetry may also be used to detect and/or quantify binding. Differential Scanning Calorimetry may be performed using methods known to those skilled in the art. In a suitable example, DSC experiments are performed using a Microcal VP-DSC microcalorimeter (Microcal, Amherst, Mass.). Temperatures from 5 to 95° C. are scanned at a rate of 60 deg/h, using a HEPES buffer pH 7.2, 1 mM DTT, which also served for baseline measurements. […] A pressure of 25 psi […] is applied to the cell. The data is analysed using Origin software (Microcal).\nThe thermal denaturation of p53 core domain is irreversible, and thus only an apparent melting temperature (Tm) can be determined (Bullock et al., 1997), but increase in stability can be correlated with increase in the apparent Tm. All DSC measurements are carried out in HEPES buffer pH 7.2, 1 mM DTT."}, "[10]": {"tested_on": "H1299-His175 cells", "assay": "Dead cells by trypan blue exclusion", "type": "cell-based", "conditions": "10 μg/mL peptide, 24 h; before treatment 5%"}, "[11]": {"tested_on": "control H1299 (p53 null) cells", "conditions": "10 μg/mL peptide, 24 h; before treatment 3%", "description": "(§1) The general methods used in the examples set forth below are described in detail in Bykov et al., Nature Med 8, 282-288 (2002) which is herein incorporated by reference.\n(§2) Tumour cells were treated with 10 μg/mL of peptide and analysed the cell cycle distribution and cell death (as subG1 fraction) 24 h post treatment using FACS analysis."}, "[12]": {"tested_on": "control Saos-2 (p53 null) cells", "conditions": "10 μg/mL peptide, 24 h; before treatment 3%", "description": "as §1, §2"}, "[13]": {"tested_on": "Saos-2-His273 cells", "assay": "Dead cells by trypan blue exclusion", "type": "cell-based", "conditions": "10 μg/mL peptide, 24 h; before treatment 3%"}, "[14]": {"tested_on": "p53 mutant His175 in H1299 lung carcinoma cells", "conditions": "24 h incubation", "description": "as §1\nLung carcinoma cells H1299 transfected with His175 p53 mutant and parental nontransfected cells were treated with the amounts of peptide indicated below, incubated for 24 h and tested for p53, p21, and Mdm-2 protein expression. […] The treatment with peptide was performed either with or without Lipofectamine."}, "[15]": {"tested_on": "wtp53 in colon carcinoma HCT116 cells", "assay": "Western blot of induced protein expression", "type": "cell-based", "conditions": "24 h, 10 μg/mL FL-CDB3"}, "[16]": {"tested_on": "HCTp53-/- cells", "assay": "Western blot of induced protein expression", "type": "cell-based", "conditions": "24 h, 10 μg/mL FL-CDB3"}, "[17]": {"molecular_target": "wild-type p53 core domain (94-312) (Homo sapiens, UniProt P04637)", "conditions": "increasing urea concentrations"}, "[18]": {"molecular_target": "T1, p53 core domain", "conditions": "Gadd45 DNA 5-25 μM"}, "[19]": {"tested_on": "p53 mutant His273", "conditions": "24 h incubation, 1-10 μg/mL FL-CDB3"}, "[20]": {"molecular_target": "p53 (Homo sapiens, UniProt P04637)", "assay": "Stabilisation of active conformations of p53 (no method given)"}}, "note": "Where “and” joins values, the source holds several entries; their conditions need not be identical. Equal values may be shown once. Read-outs that look alike come from different tables or passages of the source."}
{"smiles": "CC[C@H](C)[C@H](NC(=O)[C@H](CCC(=O)O)NC(=O)[C@H](CC(=O)O)NC(=O)[C@H](CCC(=O)O)NC(=O)[C@H](CC(=O)O)NC(=O)[C@H](CCC(=O)O)NC(=O)[C@H](CCCNC(=N)N)NC(=O)CCCC[C@@H]1SC[C@@H]2NC(=O)N[C@@H]21)C(=O)N[C@@H](CCC(=O)O)C(=O)N[C@@H](Cc1c[nH]c2ccccc12)C(N)=O", "note": "[biotinylated CDB3]", "values": [{"measurement": "improvement of affinity compared to the unlabeled peptide", "setting": "[1]", "value": "three-fold"}, {"measurement": "Kd", "setting": "[2]; biotinylated CDB3 immobilized on SA sensor chip, read-out: concentration of p53 core domain for 50% binding", "value": "~200", "unit": "nM"}, {"measurement": "Kd", "setting": "[2]; immobilized peptide, half saturation concentration by BIAcore, read-out: Kd", "value": "200 nM and ~200 nM"}]}
{"smiles": "CC[C@H](C)[C@H](NC(=O)[C@H](CCC(=O)O)NC(=O)[C@H](CC(=O)O)NC(=O)[C@H](CCC(=O)O)NC(=O)[C@H](CC(=O)O)NC(=O)[C@H](CCC(=O)O)NC(=O)[C@@H](N)CCCNC(=N)N)C(=O)N[C@@H](CCC(=O)O)C(=O)N[C@@H](Cc1c[nH]c2ccccc12)C(N)=O", "note": "[CDB3]", "values": [{"measurement": "improvement of I195T binding to Gadd45 DNA", "setting": "[3]", "value": "six fold"}, {"measurement": "effect on DNA binding of wild-type p53 core domain", "setting": "[4]", "value": "did not affect DNA binding"}, {"measurement": "effect on binding of I195T to random DNA sequence", "setting": "[5]", "value": "not improved, but rather inhibited"}, {"measurement": "apoptosis", "setting": "[6]", "value": "induces apoptosis in tumour cells in p53-dependent manner"}, {"measurement": "growth arrest", "setting": "[6]", "value": "no growth arrest was detected"}, {"measurement": "penetration into cells", "setting": "[7]", "value": "able to penetrate inside the cells by itself"}, {"measurement": "refolding of p53 core domain", "setting": "[8]", "value": "induced refolding of p53 core domain"}]}
{"smiles": "CC[C@H](C)[C@H](NC(=O)[C@H](CCC(=O)O)NC(=O)[C@H](CC(=O)O)NC(=O)[C@H](CCC(=O)O)NC(=O)[C@H](CC(=O)O)NC(=O)[C@H](CCC(=O)O)NC(=O)[C@H](CCCNC(=N)N)NC(=O)c1ccc2c(c1)C(=O)OC21c2ccc(O)cc2Oc2cc(O)ccc21)C(=O)N[C@@H](CCC(=O)O)C(=O)N[C@@H](Cc1c[nH]c2ccccc12)C(N)=O", "note": "[FL-CDB3]", "values": [{"measurement": "apparent Tm of wild-type core domain in presence of peptide", "setting": "[9]", "value": 41.6, "unit": "°C"}, {"measurement": "dead cells after treatment", "setting": "[10]", "value": 37, "unit": "%"}, {"measurement": "dead cells after treatment", "setting": "[11]", "value": 11, "unit": "%"}, {"measurement": "dead cells after treatment", "setting": "[12]", "value": 13, "unit": "%"}, {"measurement": "dead cells after treatment", "setting": "[13]", "value": 28, "unit": "%"}, {"measurement": "mutant p53 levels", "setting": "[14]", "value": "remarkably increased"}, {"measurement": "p21 and Mdm-2 protein expression", "setting": "[14]; 10 μg/mL FL-CDB3", "value": "restored the ability of p53 mutants His175 and His273 to activate the transcription of endogenous genes p21 and Mdm-2"}, {"measurement": "Mdm-2 and p21 expression", "setting": "[15]", "value": "activates expression of Mdm-2 and p21"}, {"measurement": "p21 and Mdm-2 induction", "setting": "[16]", "value": "No induction of p21 nor Mdm-2"}, {"measurement": "penetration into cells", "setting": "[7]", "value": "able to penetrate inside the cells by itself"}, {"measurement": "dependence of binding on urea concentration", "setting": "[17]", "value": "binding weakened with increasing urea concentrations"}, {"measurement": "displacement of peptide from p53 core domain by DNA", "setting": "[18]", "value": "displaced the peptide completely"}, {"measurement": "p21 and Mdm-2 protein expression", "setting": "[19]", "value": "restored the ability of p53 mutants His175 and His273 to activate the transcription of endogenous genes p21 and Mdm-2"}]}
{"smiles": "COc1ccc(/C=C/c2nc(NCCCN(C)C)c3ccccc3n2)cc1", "note": "[CP-31398]", "values": [{"measurement": "stabilisation of active conformations of p53", "setting": "[20]", "value": "does not in fact work to stabilise active conformations of p53"}]}
